From patent US20240251801A1, “COMPOSITIONS AND METHODS FOR IMPROVING PLANT HEALTH AND CONTROLLING PLANT DISEASE” (AgBiome, Inc., priority 2021, published 2024)

Assays:
Format in all cases: in vivo
[1] = tested on: Colletotrichum sublineolum; experiment: Detached sorghum leaf piece assay, control of anthracnose; conditions: sorghum leaf pieces, strain 1×10^8 CFU/ml, pyraclostrobin 10 ppm
Procedure: (§1) For detached-leaf assays performed in the following examples, bacterial strains stored in a freezer (−80° C.) were each streaked onto Luria Bertani (LB) agar (25 g LB broth and 15 g agar per liter of deionized water) in an 8.5-cm diameter plastic plate. A single colony from the plate was picked and placed in 50 ml of either LB liquid broth or a liquid broth consisting of NaCl (5 g), tryptone (10 g), nutrient broth (8 g), CaCl2 (0.14 mM), MgCl2·6H2O (0.2 mM), and MnCl2·4H2O (0.01 mM) per liter of deionized water in a 250-ml flask. Calcium chloride (CaCl2), MgCl2, and MnCl2 were filtered sterilized using 0.22 μm vacuum filter and were then added to NaCl, tryptone, nutrient broth (which were autoclaved together). Cultures were harvested after 48 h by pelleting cells and re-suspending to original volume in sterile H2O. Colony forming units (CFU/mL) were determined using standard dilution plate count method, and plates were inspected for signs of contamination. Sterile distilled water was added to achieve a final concentration needed in detached-leaf or growth chamber strain evaluations. […]
Seven days post inoculation, the leaf pieces were assessed for anthracnose severity on a scale of 0-4 according to Prom et al., 2016 (Plant Path J. 15(1): 11-16), with few modifications. […] Data was analyzed using analysis of variance (ANOVA) in JMP® (version 14.0.0; SAS Institute Inc., Cary, NC). […]

Podosphaera xanthii [2] = experiment: Squash leaf disc assay, control of powdery mildew on cucurbits; conditions: squash leaf discs, bacterial suspension 200 μL, tebuconazole 10 ppm
Procedure: as §1, with “contamination.” for “contamination. Sterile distilled water was added to achieve a final concentration needed in detached-leaf or growth chamber strain evaluations.”
Leaf disks were inoculated on the treated leaf surface by spraying a conidial suspension (1×10^6 conidia/ml of sterile distilled water) of P. xanthii (an isolate obtained from Dr. McGrath laboratory, Cornell University). […] The number of powdery mildew colonies were also recorded for each treatment. […] Data was analyzed in SAS JMP version 14.0.

Podosphaera xanthii [3] = experiment: Squash leaf disc assay with wettable powder formulations, control of powdery mildew; conditions: squash leaf discs, 150 μL, tebuconazole 10 ppm as control
Procedure: For the tray drying method, 829 grams of cell paste obtained from a liquid culture of ATP15329 was mixed with 18.24 g of glycerol and 72.95 g of microcel E using a food processor. Half of the cell paste was dried at 40° C. to a water activity of less than 0.30, at which time it contained 3.53E11 CFU/g. The other half was dried at 25° C. and 50% RH to a water activity of less than 0.6, at which time it contained 4.75E11 CFU/g. The dried powder formulation was stored in heat sealed mylar pouches at 4° C.
For the spray drying method, 200 grams of cell paste obtained from a liquid culture of ATP15329 was mixed with 22 g of skim milk powder using an emulsion blender. This material was spray dried at outlet temperature of 70° C., at which time it contained 7.86E10 CFU/g. The dried powder formulation was stored in heat sealed mylar pouches at 4° C.
This evaluation followed the protocol used in Example 3. Briefly, leaf disks were each sprayed with 150 μL of different formulations of the bacterial strain AIP015329, tebuconazole 10 ppm (fungicide control) on the adaxial surface 24 hours before inoculation with the fungal pathogen. After treatment, leaf disks were incubated in the dark for 24 hours at 23° C.
Leaf disks were inoculated on the treated leaf surface by spraying a conidial suspension (1×10^6 conidia/ml of sterile distilled water) of P. xanthii. Inoculated and non-inoculated/not treated controls were added. Treatments were placed into sealed clear plastic boxes and incubated for six days at 25° C. with a relative humidity of 80% and a 12 h photoperiod. Each treatment was rated on a disease severity scale from 0 to 4, with 0 being no symptoms and 4 being greater than 50% of the leaf disk covered with colonies. The number of powdery mildew colonies were also recorded for each treatment. This experiment was run once, with each treatment replicated three times. Data was analyzed in SAS JMP version 14.0.

Mycosphaerella fijiensis = experiment: Grand Nain (Musa) leaf piece assay, control of black sigatoka; conditions: Grand Nain leaf pieces, strain 1×10^8 CFU/ml, mancozeb 10 ppm
Procedure: as §1
Data recorded were the most progressed stage on inoculated leaves, 3 to 4 weeks after inoculation (Stover 1986). Data were analyzed using analysis of variance (ANOVA) in PROC GLM of SAS (version 9.4; SAS Institute Inc., Cary, NC) and significant differences (P<0.05) were observed among treatments.

COC(=O)N(OC)c1ccccc1COc1ccn(-c2ccc(Cl)cc2)n1 [Pyraclostrobin]
Disease Control (%) Confirmation ([1]; confirmation screen with freshly grown culture): 79.2 (a) % | Disease Control (%) Primary Screen ([1]; treated 24 h before inoculation, rated 7 days post inoculation): 95.2 (a) %

CC(C)(C)C(O)(CCc1ccc(Cl)cc1)Cn1cncn1 (stereo not drawn) [Tebuconazole, tebuconazole]
Disease Control (%) Confirmation (Podosphaera xanthii [2]; confirmation): 75.0 (a) % | Disease Control (%) Primary Screen (Podosphaera xanthii [2]; treated 24 h before inoculation, six days incubation): 87.5 (a) % | Disease Control (%) Spray dry (Podosphaera xanthii [3]; spray dried formulation of the strain): 96.0 (a) % | Disease Control (%) Tray dry Dried at 25° C. (Podosphaera xanthii [3]; tray dried formulation dried at 25° C.): 96.0 (a) % | Disease Control (%) Tray dry Dried at 40° C. (Podosphaera xanthii [3]; tray dried formulation dried at 40° C.): 96.0 (a) %

mancozeb
Disease Control (%) Primary Screen (Mycosphaerella fijiensis; 3 to 4 weeks after inoculation): 92.3 (a) % | Disease Control (%) Confirmation (Mycosphaerella fijiensis; confirmation): 81.0 (a) %
